Test results taken from patent US6777426B2, “Imidazole and imidazoline derivatives and uses thereof” (Synaptic Pharmaceutical Corporation, priority 1997, dated 2004).
Structures can show the parent of a compound that is named as a salt. Where two headings read alike, the source gives them in different places.

Tests used:
[1] = molecular target: T1, human α2a adrenergic receptor (Homo sapiens, UniProt P08913); assay: Equilibrium competition binding, [3H]rauwolscine, cloned human α2a
T1 construct: expressed in transfected cells; host or cells: LM(tk−) cells (L-α2A, ATCC CRL-11180), vector pCEXV-3
T1 sequence (P08913 1-465): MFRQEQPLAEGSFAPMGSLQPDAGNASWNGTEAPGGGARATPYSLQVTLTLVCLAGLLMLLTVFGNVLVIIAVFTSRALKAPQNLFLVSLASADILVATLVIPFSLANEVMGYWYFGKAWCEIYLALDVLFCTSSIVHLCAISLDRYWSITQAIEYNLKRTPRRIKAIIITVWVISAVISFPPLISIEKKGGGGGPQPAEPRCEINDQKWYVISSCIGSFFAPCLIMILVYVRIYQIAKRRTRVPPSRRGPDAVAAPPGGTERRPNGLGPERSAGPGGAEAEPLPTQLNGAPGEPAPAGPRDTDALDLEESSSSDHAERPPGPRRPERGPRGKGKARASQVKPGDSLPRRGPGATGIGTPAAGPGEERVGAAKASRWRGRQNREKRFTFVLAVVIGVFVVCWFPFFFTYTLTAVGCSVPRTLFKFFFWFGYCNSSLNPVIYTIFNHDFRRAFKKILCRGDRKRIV
Protocol: (§1) Binding and functional assays were performed using stably transfected cells expressing human α adrenergic receptors. Equilibrium competition binding assays were performed with membrane preparations from cultured LM(tk−) cells stably transfected with the cloned human adrenoceptor subtypes except for a21, which was expressed In Y-1 cells, using [^3H]prazosin for α1 receptors and [^3H]rauwolscine for […].
(§2) These cell lines were prepared by transfecting cloned cDNA or cloned genomic DNA or constructs containing both genomic DNA and cDNA encoding the human a adrenergic receptors as described below.
The insert housing this coding region was a 2.5 kb Kpnl/HindIII human placenta genomic fragment which was end-blunted by either T4 polymerase or Klenow fragment of DNA polymerase. Stable cell lines were obtained by to-transfection with the plasmid pGCcos3neo (plasmid containing the α2a receptor gene) and the plasmid pGCcos3neo (plasmid containing the aminoglycoside transferase gene) into LM(tk−), CHO, and NIH3T3 cells, using calcium phosphate technique. The cells were grown in a controlled environment (37° C., 5% CO2) as monolayers in Dulbecco's modified Eagle's Medium (GIBCO, Grand Island, N.Y.) containing 25 mM glucose and supplemented with 10% bovine calf serum, 100 units/mL penicillin g, and […] streptomycin sulfate.
(§3) The stable cell lines described above were scraped from culture flasks into 5 mL of 5 mM Tris-HCl, […], pH 7.5, and lysed by sonication. The cell lysates were centrifuged at 1,000 rpm for 5 min. at 4° C., and the supernatant was centrifuged at 30,000×g for 20 min. at 4° C. The pellet was suspended in 50 mM Tris-HCl, 1 mM MgCl2, and 0.1% ascorbic acid at pH 7.5. Binding of the α2 antagonist [^3H]rauwolscine (0.5 nM) or the α1 antagonist [^3H]prazosin (0.5 nM) to membrane preparations of LM(tk−) cells was done in a final volume of 0.25 mL and incubated at 37° C. for 20 min. Nonspecific binding was determined in the presence of […]. The reaction was stopped by filtration through GF/B filters using a cell harvester.

[2] = molecular target: T2, human α2b adrenergic receptor (Homo sapiens, UniProt P18089); assay: Equilibrium competition binding, [3H]rauwolscine, cloned human α2b
T2 construct: expressed in transfected cells; host or cells: stably transfected cells, vector pcEXV-3; deposited line L-NGC-α2B (ATCC CRL-10275)
T2 sequence (P18089 1-450): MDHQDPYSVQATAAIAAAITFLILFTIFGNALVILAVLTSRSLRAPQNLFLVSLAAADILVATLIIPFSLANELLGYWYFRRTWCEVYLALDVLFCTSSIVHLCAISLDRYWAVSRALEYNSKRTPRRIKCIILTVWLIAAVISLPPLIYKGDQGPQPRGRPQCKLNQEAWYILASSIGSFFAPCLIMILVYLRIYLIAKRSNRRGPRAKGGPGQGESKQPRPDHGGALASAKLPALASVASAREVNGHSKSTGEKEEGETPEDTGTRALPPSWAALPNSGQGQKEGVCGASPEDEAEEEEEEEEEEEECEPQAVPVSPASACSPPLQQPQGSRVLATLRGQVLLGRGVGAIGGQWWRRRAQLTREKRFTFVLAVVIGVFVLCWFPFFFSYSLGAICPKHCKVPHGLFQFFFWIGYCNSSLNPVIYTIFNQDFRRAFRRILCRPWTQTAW
Protocol: as §1, §2
Stable cell lines were selected as described above.
as §3

[3] = molecular target: T3, human α2c adrenergic receptor (Homo sapiens, UniProt P18825); assay: Equilibrium competition binding, [3H]rauwolscine, cloned human α2c
T3 construct: The entire coding region of α2c (1383 bp), including 2 bp of 5′ UT and 400 bp of 3′ UT; expressed in transfected cells; host or cells: LM(tk−) cells (L-α2c, ATCC CRL-11181), vector pCEXV-3
T3 sequence (P18825 1-462): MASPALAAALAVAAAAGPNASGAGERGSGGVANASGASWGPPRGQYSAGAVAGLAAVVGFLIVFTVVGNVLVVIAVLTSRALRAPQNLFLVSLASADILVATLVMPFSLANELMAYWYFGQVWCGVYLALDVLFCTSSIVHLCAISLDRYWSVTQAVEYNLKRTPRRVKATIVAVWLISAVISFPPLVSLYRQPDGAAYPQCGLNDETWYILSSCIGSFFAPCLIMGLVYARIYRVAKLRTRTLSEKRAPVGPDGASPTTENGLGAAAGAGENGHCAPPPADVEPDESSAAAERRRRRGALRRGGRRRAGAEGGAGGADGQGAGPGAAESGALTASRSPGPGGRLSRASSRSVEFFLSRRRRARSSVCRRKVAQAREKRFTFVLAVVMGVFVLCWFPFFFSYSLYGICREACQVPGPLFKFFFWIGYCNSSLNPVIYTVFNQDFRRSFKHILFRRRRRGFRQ
Protocol: as §1, §2
The insert housing this coding region was a 1.8 kb Ncol/EcoR1 human spleen genomic fragment which was end-blunted by either T4 polymerase or Klenow fragment of DNA polymerase. Stable cell lines were selected as described above.
as §3

[4] = molecular target: T1, human α2a adrenergic receptor; assay: α2 agonist activity: inhibition of forskolin-stimulated cAMP synthesis, α2a cells; format: cell-based; settings: for α2a IA (Intrinsic Activity): inhibition of forskolin-stimulated cAMP, cloned human α2a
Protocol: as §1, §2
(§4) The agonist activity (expressed as pEC50) was measured as a function of the ability to inhibit the forskolin-stimulated synthesis of cyclic adenosine monophosphate (cAMP). The stably transfected cells were incubated in Ham's F10 with 5 mM theophylline, 10 mM HEPES, 17 mM pargyline, and/or appropriate concentrations of forskolin for 20 min. at 37° C. in 5% CO2. The tested compounds were then added to a final concentration of 0.001 nM to 1 mM and incubated for an additional 15 min. at 37° C. in 5% CO2. The medium was aspirated and the reaction was stopped by the addition of 100 mM HCl. […] The plates were stored at 4° C. for 15 min. and assayed to determine the linear concentration of cAMP. The appropriate dilution was interpolated from the standard curve of cold cAMP. The assessment of cAMP formation was determined by radioimmunoassay (cAMP radioimmunoassay kit; Advanced magnetics, Cambridge, Mass.). Radioactivity was quantified using a Packard COBRA Auto Gamma counter equipped with data reduction software.

[5] = molecular target: T2, human α2b adrenergic receptor; assay: α2 agonist activity: inhibition of forskolin-stimulated cAMP synthesis, α2b cells; format: cell-based
Protocol: as §1, §2, §4

[6] = molecular target: T3, human α2c adrenergic receptor; assay: α2 agonist activity: inhibition of forskolin-stimulated cAMP synthesis, α2c cells; format: cell-based
Protocol: as §1, §2, §4

[7] = inhibition of forskolin-stimulated cAMP, cloned human α2b
[8] = inhibition of forskolin-stimulated cAMP, cloned human α2c
[9] = cloned human α2a, membrane preparations, [3H]rauwolscine, read-out: α2a pKi (converted)
[10] = cloned human α2b, membrane preparations, [3H]rauwolscine, read-out: α2b pKi (converted)
[11] = cloned human α2c, membrane preparations, [3H]rauwolscine, read-out: α2c pKi (converted)
[12] = inhibition of forskolin-stimulated cAMP, cloned human α2b, read-out: α2b pEC50 (converted)
[13] = inhibition of forskolin-stimulated cAMP, cloned human α2c, read-out: α2c pEC50 (converted)

## Br.Brc1cc2c(cc1NC1=NCCN1)CCC2
other
  melting point: 220 to 221 °C

## Brc1cc2c(c(Br)c1NC1=NCCN1)CCC2
other
  melting point: 163 to 164 °C

## C1=NC(Cc2ccnc3ccccc23)CN1.O=C(O)/C=C/C(=O)O (centres unmarked)
other
  melting point: 180 to 182 °C

## O=[N+]([O-])c1cc2c(cc1NC1=NCCN1)CCC2 (as salt: fumarate)
other
  melting point: 213 to 214 °C (dec.)

## CC1CCc2ncc(NC3=NCCN3)cc2C1 (centres unmarked) (as salt: fumarate)
other
  melting point: 192 to 195 °C (dec.)

## CC1CCCc2cc(NC3=NCCN3)cnc21 (centres unmarked) (as salt: fumarate)
other
  melting point: 155 to 160 °C (dec.)

## CC1(C)CCCc2cc(NC3=NCCN3)cnc21 (as salt: fumarate)
other
  melting point: 185 to 186 °C (dec.)

## c1nc2c(cc1NC1=NCCN1)CCCC2 (as salt: fumarate)
other
  melting point: 201 to 203 °C

## c1nc2c(cc1NC1=NCCN1)COCC2 (as salt: fumarate)
other
  melting point: 201 to 202.5 °C

## OC1CCCc2ccc(NC3=NCCN3)cc21 (centres unmarked) (as salt: fumarate)
other
  melting point: 180 to 182 °C (dec.)

## CC1CCCc2ccc(NC3=NCCN3)cc21 (centres unmarked) (as salt: fumarate)
other
  melting point: 185 to 187 °C (dec.)

## O=C1CCCc2ccc(NC3=NCCN3)cc21 (as salt: fumarate) [Example 4, 2-(1,2,3,4-Tetrahydro-1-oxo-naphth-7-yl)amino-2-imidazoline]
other
  melting point: 198 to 201 °C (dec.)

## O=C1CCCc2ccc(NC3=NCCN3)c(Br)c21 (as salt: fumarate) [Example 5, 2-(8-Bromo-1,2,3,4-Tetrahydro-1-oxo-naphth-7-yl)amino-2-imidazoline]
other
  melting point: 204 to 207 °C (dec.)

## CON=C1CCCc2ccc(NC3=NCCN3)cc21 (as salt: fumarate) [Example 8, 2-(1,2,3,4-Tetrahydro-1-methoxyimino-naphth-7-yl)amino-2-imidazoline]
other
  melting point: 201 to 202 °C (dec.)

## CC(=O)N1CCc2cc(NC3=NCCN3)ccc21 (as salt: fumarate) [Example 9, 2-(1-Acetyl-indolin-5-yl)amino-2-imidazoline]
other
  melting point: 200 to 203 °C (dec.)

## c1nc2c(cc1NC1=NCCN1)CCC2 (as salt: fumarate) [Example 21, 2-(2,3-Cyclopentenopyrid-5-yl)amino-2-imidazoline]
other
  melting point: 182 to 183.5 °C

## c1nc2c(cc1NC1=NCCN1)CSCC2 (as salt: fumarate) [Example 25, 2-(5,6,7,8-tetrahydro-6-thia-quinolin-3-yl)amino-2-imidazoline]
other
  melting point: 199.5 to 200.5 °C

## Cc1nc2c(c(C)c1NC1=NCCN1)CCC2 (as salt: fumarate) [Example 30, 2-(5,6-Cyclopenteno-2,4-dimethyl-pyrid-3-yl)amino-2-imidazoline]
other
  melting point: 220 to 221 °C

## c1nc2c(cc1NC1=NCCN1)CCC2 [Example 21, 2-(2,3-Cyclopentenopyrid-5-yl)amino-2-imidazoline]
[1]
  Ki: 0.0501 µM
[2]
  Ki: 0.166 µM
[3]
  Ki: 0.457 µM
[4]
  EC50: 0.389 µM
  α2a IA (Intrinsic Activity): (0.58)
[5]
  EC50: 1.95 µM
[5]; [7]
  α2b IA (Intrinsic Activity): (0.55)
[6]
  EC50: 0.0162 µM
[6]; [8]
  α2c IA (Intrinsic Activity): (1.00)

## Brc1nc2c(c(Br)c1NC1=NCCN1)CCC2 [Example 29, 2-(2,4-Dibromo-5,6-cyclopentenopyrid-3-yl)amino-2-imidazoline]
[1]; [9]
  Ki: 0.0148 µM
[2]; [10]
  Ki: 0.0513 µM
[3]; [11]
  Ki: 0.251 µM
[4]
  EC50: 0.0158 µM
  α2a IA (Intrinsic Activity): (1.00)
[5]; [7]
  α2b IA (Intrinsic Activity): (0.40)
[5]; [12]
  EC50: 0.0912 µM
[6]; [8]
  α2c IA (Intrinsic Activity): (1.00)
[6]; [13]
  EC50: 0.0138 µM

## Cc1nc2c(c(C)c1NC1=NCCN1)CCC2 [Example 30, 2-(5,6-Cyclopenteno-2,4-dimethyl-pyrid-3-yl)amino-2-imidazoline]
[1]; [9]
  Ki: 0.0178 µM
[2]; [10]
  Ki: 0.0363 µM
[3]; [11]
  Ki: 0.309 µM
[4]
  EC50: 0.00295 µM
  α2a IA (Intrinsic Activity): (1.00)
[5]; [7]
  α2b IA (Intrinsic Activity): (0.43)
[5]; [12]
  EC50: 0.148 µM
[6]; [8]
  α2c IA (Intrinsic Activity): (1.00)
[6]; [13]
  EC50: 0.00631 µM

## Cc1cccc(C(C)c2cnc[nH]2)c1C (centres unmarked) [Medetomidine, reference compound]
[3]; [11]
  Ki: 0.00537 µM
[4]
  α2a IA (Intrinsic Activity): (1.00)
[6]; [8]
  α2c IA (Intrinsic Activity): (1.00)
[6]; [13]
  EC50: 0.00148 µM

## Brc1c(NC2=NCCN2)ccc2nccnc12 [UK-14, 304, reference compound]
[6]; [8]
  α2c IA (Intrinsic Activity): (1.00)
